# Laboratory results as given in patent US20220340564A1, “ANTIBACTERIAL COMPOUNDS” (Janssen Sciences Ireland Unlimited Company, priority 2019, published 2022).
# System: Mycobacterium tuberculosis strain EH4.0 expressing green-fluorescent protein (GFP)
# Experiment: microbe, parasite or virus in culture
# Assay type: cell-based
# Conditions: 168 h, read-out: pIC50 (converted)
row,SMILES,IC50
1,CCc1nc2ncc(OC)cn2c1C(=O)NCc1ccc(N2CCN(S(=O)(=O)C(F)(F)F)C(OC)=N2)c(F)c1 [Compound 50],1.07 nM
2,CCc1nc2ccc(Cl)cn2c1C(=O)NCc1cc(F)c(N2CCN(S(=O)(=O)C(F)(F)F)C=N2)c(F)c1 [Compound 35],5.01 nM
3,O=C(NCc1ccc(N2CCN(S(=O)(=O)C(F)(F)F)C=N2)c(F)c1)c1c(C(F)F)nc2ccccn12 [Compound 159],1.2 nM
4,COC1=NN(c2ccc(CNC(=O)c3c(C(F)F)nc4ccc(Cl)cn34)cc2F)CCN1S(=O)(=O)C(F)(F)F [Compound 206],2.45 nM
5,CCc1nc2ccc(Cl)cn2c1C(=O)NCc1ccc(N2CCN(C(C)=O)C=N2)cc1 [Compound 18],15.8 nM
6,O=C(NCc1cnc(N2CCN(S(=O)(=O)C(F)(F)F)C=N2)c(F)c1)c1c(C(F)(F)F)nc2ccc(Cl)cn12 [Compound 167],87.1 nM
7,CCc1nc2cccc(Cl)n2c1C(=O)NCc1ccc(N2CCN(S(=O)(=O)C(F)(F)F)C(OC)=N2)cc1 [Compound 70],≥ 501 nM
8,CCc1nc2ncc(Cl)cn2c1C(=O)NCc1ccc(N2CCN(C(C)=O)C=N2)cc1 [Compound 24],15.8 nM
9,CCc1nc2ncc(C(=O)NC)cn2c1C(=O)NCc1ccc(N2CCN(S(=O)(=O)C(F)(F)F)C=N2)cc1 [Compound 61],≥ 501 nM
10,CCc1nc2ccc(Cl)cn2c1C(=O)NCc1ccc(N2CCN(c3cccs3)C(OC)=N2)cc1 [Compound 120],12.9 nM
11,CCc1nc2ncc(Cl)cn2c1C(=O)NCc1ccc(N2CCN(S(=O)(=O)C(F)(F)F)C(CCO)=N2)cc1 [Compound 41],50.1 nM
12,CCc1nc2ccc(Cl)cn2c1C(=O)NCc1ccc(N2CCN(S(=O)(=O)CC(C)C)C=N2)cc1 [Compound 17],20 nM
13,CCc1nc2ccc(OC)cn2c1C(=O)NCc1ccc(N2CCN(S(=O)(=O)C(F)(F)F)C=N2)cc1 [Compound 42],6.31 nM
14,CCc1nc2nc3c(cn2c1C(=O)NCc1ccc(N2CCN(S(=O)(=O)C(F)(F)F)C=N2)c(F)c1)OCCN3C [Compound 205],66.1 nM
15,CCc1nc2nc(OC)c(Cl)cn2c1C(=O)NCc1ccc(N2CCN(S(=O)(=O)C(F)(F)F)C=N2)c(F)c1 [Compound 86],89.1 nM
16,CCc1nc2cc(F)c(Cl)cn2c1C(=O)NCc1ccc(N2CCN(S(=O)(=O)C(F)(F)F)C=N2)c(F)c1 [Compound 157],1.38 nM
17,CCc1nc2ncc(F)cn2c1C(=O)NCc1ccc(N2CCN(S(=O)(=O)C(F)(F)F)C=N2)c(F)c1 [Compound 130],8.71 nM
18,CCc1nc2cc(OC)c(Cl)cn2c1C(=O)NCc1ccc(N2CCN(S(=O)(=O)C(F)(F)F)C=N2)cc1 [Compound 64],316 nM
19,CCc1nc2ccc(Cl)cn2c1C(=O)NCc1ccc(N2CCN(c3nccs3)C=N2)cc1 [Compound 76],13.5 nM
20,COC1=NN(c2ccc(CNC(=O)c3c(C(F)F)nc4ccccn34)cc2F)CCN1S(=O)(=O)C(F)(F)F [Compound 160],1.2 nM
21,CCc1nc2nc(N)c(F)cn2c1C(=O)NCc1ccc(N2CCN(S(=O)(=O)C(F)(F)F)C=N2)c(F)c1 [Compound 170],316 nM
22,Cc1cc(F)c2ncc(C(=O)NCc3cnc(N4CCN(S(=O)(=O)C(F)(F)F)C=N4)c(F)c3)n2c1 [Compound 178],200 nM
23,CCc1nc2cc(F)c(Cl)cn2c1C(=O)NCc1ccc(N2CCNC=N2)c(F)c1 [Compound 202],389 nM
24,CCc1nc2nc(NC)c(Cl)cn2c1C(=O)NCc1ccc(N2CCN(S(=O)(=O)C(F)(F)F)C=N2)c(F)c1 [Compound 83],372 nM

row,SMILES,IC50
1,CCc1nc2cc3c(cn2c1C(=O)NCc1ccc(N2CCN(S(=O)(=O)C(F)(F)F)C=N2)c(F)c1)CCC3 [Compound 113],16.2 nM
2,Cc1cn2c(C(=O)NCc3ccc(N4CCN(S(=O)(=O)C(F)(F)F)C=N4)c(F)c3)c(C(F)(F)F)nc2s1 [Compound 136],6.31 nM
3,CCc1nc2nc(C)ccn2c1C(=O)NCc1ccc(N2CCN(S(=O)(=O)C(F)(F)F)C=N2)c(F)c1 [Compound 111],18.2 nM
4,CCc1nc2ccc(Cl)cn2c1C(=O)NCc1ccc(N2CCNC(OC)=N2)c(F)c1 [Compound 110],18.6 nM
5,CCc1nc2nc3c(cn2c1C(=O)NCc1ccc(N2CCN(S(=O)(=O)C(F)(F)F)C(OC)=N2)c(F)c1)CCC3 [Compound 158],1.38 nM
6,COC1=NN(c2ccc(CNC(=O)c3c(C(F)(F)F)nc4ccc(Cl)cn34)cc2F)CCN1S(=O)(=O)C(F)(F)F [Compound 117],14.8 nM
7,CCc1nc2sc(C)cn2c1C(=O)NCc1ccc(N2CCN(S(=O)(=O)C(F)(F)F)C=N2)c(F)c1 [Compound 163],0.316 nM
8,CCc1nc2nc(C)c(F)cn2c1C(=O)NCc1ccc(N2CCN(S(=O)(=O)C(F)(F)F)C=N2)c(F)c1 [Compound 177],7.94 nM
9,CCc1nc2cc(C)c(Cl)cn2c1C(=O)NCc1ccc(N2CCN(S(=O)(=O)C(F)(F)F)C=N2)c(F)c1 [Compound 116],15.1 nM
10,CCC1=NN(c2ccc(CNC(=O)c3c(CC)nc4ccc(Cl)cn34)cc2)CCN1S(=O)(=O)C(F)(F)F [Compound 2],15.8 nM
11,CCc1nc2ccc(Cl)cn2c1C(=O)NCc1ccc(N2CCN(C)C(C)=N2)cc1 [Compound 59],200 nM
12,O=C(NCc1ccc(N2CCN(S(=O)(=O)C(F)(F)F)C=N2)cc1)c1c(C(F)(F)F)nc2ccccn12 [Compound 127],9.55 nM
13,CC1=NN(c2ccc(CNC(=O)c3c(C(F)(F)F)nc4ccccn34)cc2)CCN1S(=O)(=O)C(F)(F)F [Compound 214],13.5 nM
14,CCc1nc2cc(Cl)c(OC)cn2c1C(=O)NCc1ccc(N2CCN(S(=O)(=O)C(F)(F)F)C=N2)cc1 [Compound 67],200 nM
15,CCc1nc2ccc(CCCOC)cn2c1C(=O)NCc1ccc(N2CCN(S(=O)(=O)C(F)(F)F)C=N2)cc1 [Compound 63],≥ 501 nM
16,CCc1nc2ccc(Cl)cn2c1C(=O)NCc1ccc(N2CCNC=N2)cc1 [Compound 56],158000 nM
17,CCc1nc2cc(OC)c(OC)cn2c1C(=O)NCc1ccc(N2CCN(S(=O)(=O)C(F)(F)F)C(OC)=N2)c(F)c1 [Compound 53],81.3 nM
18,CCc1nc2nc(N3CCCC3)c(Cl)cn2c1C(=O)NCc1ccc(N2CCN(S(=O)(=O)C(F)(F)F)C=N2)c(F)c1 [Compound 82],≥ 501 nM
19,CCc1nc2c(C)cc(C)cn2c1C(=O)NCc1cnc(N2CCN(S(=O)(=O)C(F)(F)F)C=N2)c(F)c1 [Compound 183],200 nM
20,CCc1nc2ccc(Cl)cn2c1C(=O)NCc1ccc(N2CCN(S(=O)(=O)C(F)(F)F)C(C)=N2)cc1 [Compound 21],2.51 nM
21,CCc1nc2cc(OC)c(Cl)cn2c1C(=O)NCc1ccc(N2CCN(S(=O)(=O)C(F)(F)F)C(OC)=N2)c(F)c1 [Compound 46],100 nM
22,CCc1nc2cc(Cl)c(Cl)cn2c1C(=O)NCc1ccc(N2CCN(S(=O)(=O)C(F)(F)F)C=N2)c(F)c1 [Compound 118],13.8 nM
23,CCc1nc2nc3c(cn2c1C(=O)NCc1ccc(N2CCN(S(=O)(=O)C(F)(F)F)C(C)=N2)cc1)CCOC3 [Compound 217],14.1 nM
24,CCc1nc2nc(C)c(Cl)cn2c1C(=O)NCc1ccc(N2CCNC=N2)c(F)c1 [Compound 199],> 500 nM

row,SMILES,IC50
1,COC1=NN(c2ccc(CNC(=O)c3c(C)nn4ccc(OC)cc34)cc2)CCN1S(=O)(=O)C(F)(F)F [Compound 34],10 nM
2,CCOc1ccc2nc(CC)c(C(=O)NCc3ccc(N4CCN(S(=O)(=O)C(F)(F)F)C=N4)cc3)n2c1 [Compound 43],10 nM
3,O=C(NCc1ccc(N2CCN(S(=O)(=O)C(F)(F)F)C=N2)cc1)c1c(C(F)F)nc2ccccn12 [Compound 128],9.12 nM
4,CCc1nc2n(ccc3ncnn32)c1C(=O)NCc1ccc(N2CCN(S(=O)(=O)C(F)(F)F)C=N2)c(F)c1 [Compound 207],186 nM
5,CCc1nc2ccc(Cl)cn2c1C(=O)NCc1ccc(N2CCN(S(=O)(=O)C(F)(F)F)C=N2)nc1 [Compound 171],25.1 nM
6,CCc1nc2ccc(OC)cn2c1C(=O)NCc1ccc(N2CCN(S(=O)(=O)C(F)(F)F)C(OC)=N2)c(F)c1 [Compound 48],1.58 nM
7,CCc1nc2ccc(Cl)cn2c1C(=O)NCc1ccc(N2CCN(C=O)C=N2)cc1 [Compound 38],63.1 nM
8,CCc1nc2ccc(F)cn2c1C(=O)NCc1ccc(N2CCN(S(=O)(=O)C(F)(F)F)C=N2)c(F)c1 [Compound 156],1.38 nM
9,CCc1nc2ncc(Cl)cn2c1C(=O)NCc1ccc(N2CCN(S(=O)(=O)CC(C)C)C=N2)cc1 [Compound 23],12.6 nM
10,CCc1nc2ncc(F)cn2c1C(=O)NCc1ccc(N2CCN(S(=O)(=O)C(F)(F)F)C(OC)=N2)c(F)c1 [Compound 121],12.9 nM
11,CCc1nc2c(Cl)c(OC)ccn2c1C(=O)NCc1ccc(N2CCN(S(=O)(=O)C(F)(F)F)C=N2)cc1 [Compound 39],79.4 nM
12,CCc1nc2cc(OC)c(Cl)cn2c1C(=O)NCc1ccc(N2CCN(S(=O)(=O)C(F)(F)F)C=N2)c(F)c1 [Compound 93],49 nM
13,CCc1nc2ncc(Cl)cn2c1C(=O)NCc1ccc(N2CCN(S(=O)(=O)C(F)(F)F)C=N2)c(F)c1 [Compound 146],3.8 nM
14,CCc1nc2cc(OC)ccn2c1C(=O)NCc1ccc(N2CCN(S(=O)(=O)C(F)(F)F)C=N2)cc1 [Compound 51],45.7 nM
15,O=C(NCc1ccc(N2CCN(S(=O)(=O)C(F)(F)F)C=N2)cc1)c1c(C(F)F)nc2n1CCCC2 [Compound 104],28.2 nM
16,CCc1nc2nc3c(cn2c1C(=O)NCc1ccc(N2CCN(S(=O)(=O)C(F)(F)F)C(OC)=N2)c(F)c1)CCOC3 [Compound 180],3.98 nM
17,CCc1nc2cc(Cl)c(OC)cn2c1C(=O)NCc1ccc(N2CCN(S(=O)(=O)C(F)(F)F)C(OC)=N2)c(F)c1 [Compound 49],23.4 nM
18,CCc1nc2c(F)cc(C)cn2c1C(=O)NCc1cnc(N2CCN(S(=O)(=O)C(F)(F)F)C=N2)c(F)c1 [Compound 181],6.31 nM
19,COC1=NN(c2ccc(CNC(=O)c3c(C(F)(F)F)nc4n3CCCC4)cc2F)CCN1S(=O)(=O)C(F)(F)F [Compound 112],17.4 nM
20,CCc1nc2ccc(Cl)cn2c1C(=O)NCc1ccc(N2CCN(C(=O)C(F)(F)F)C=N2)cc1 [Compound 66],251 nM
21,CCc1nc2ncc(Cl)cn2c1C(=O)NCc1cnc(N2CCN(S(=O)(=O)C(F)(F)F)C=N2)c(F)c1 [Compound 168],38.9 nM
22,CCc1nc2ccc(Cl)cn2c1C(=O)NCc1ccc(N2CCN(S(=O)(=O)C(F)(F)F)C(CC#N)=N2)cc1 [Compound 77],7.94 nM
